Assays:
Assay type in all cases: cell-based
[1] = tested on: Glomerella lagenarium (Colletotrichum lagenarium); test: Glomerella lagenarium (Colletotrichum lagenarium) / liquid culture (anthracnose); conditions: Colletotrichum orbiculare, growth inhibition photometrically 3-4 days after application, compared to untreated control
Method: 3. Glomerella lagenarium (Colletotrichum lagenarium)/Liquid Culture (Anthracnose) Conidia of the fungus from cryogenic storage are directly mixed into nutrient broth (PDB potato dextrose broth). After placing a (DMSO) solution of test compound into a microtiter plate (96-well format), the nutrient broth containing the fungal spores is added. The test plates are incubated at 24° C. and the inhibition of growth is measured photometrically 3-4 days after application.

Gaeumannomyces graminis = Gaeumannomyces graminis / liquid culture (take-all of cereals); conditions: growth inhibition photometrically 4-5 days after application, compared to untreated control
Method: (§1) 6. Gaeumannomyces Graminis/Liquid Culture (Take-all of Cereals) Mycelial fragments of the fungus from cryogenic storage were directly mixed into nutrient broth (PDB potato dextrose broth). After placing a (DMSO) solution of test compound into a microtiter plate (96-well format), the nutrient broth containing the fungal spores is added. The test plates are incubated at 24° C. and the inhibition of growth is determined photometrically 4-5 days after application.

[2] = tested on: Monographella nivalis (Microdochium nivale); test: Monographella nivalis (Microdochium nivale) / liquid culture (foot rot cereals); conditions: growth inhibition photometrically 4-5 days after application, compared to untreated control
Method: as §1, with “8. Monographella nivalis (Microdochium nivale)/Liquid” for “6. Gaeumannomyces Graminis/Liquid”, “(Foot Rot” for “(Take-all of”, “Conidia” for “Mycelial fragments”, “are” for “were”

[3] = tested on: Mycosphaerella arachidis (Cercospora arachidicola); test: Mycosphaerella arachidis (Cercospora arachidicola) / liquid culture (early leaf spot); conditions: growth inhibition photometrically 4-5 days after application, compared to untreated control
Method: as §1, with “9. Mycosphaerella arachidis (Cercospora arachidicola)/Liquid” for “6. Gaeumannomyces Graminis/Liquid”, “(Early Leaf Spot) Conidia” for “(Take-all of Cereals) Mycelial fragments”, “are” for “were”

Pythium ultimum = Pythium ultimum / liquid culture (seedling damping off); conditions: Globisporangium ultimum, growth inhibition photometrically 2-3 days after application, compared to untreated control
Outline: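 Fungal mycelia fragments and oospores from fresh liquid culture mixed into potato dextrose broth and added to DMSO solutions of test compound. Incubated at 24° C.; growth inhibition read photometrically 2-3 days after application.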

[4] = tested on: Thanatephorus cucumeris (Rhizoctonia solani); test: Thanatephorus cucumeris (Rhizoctonia solani) / liquid culture (foot rot, damping-off); conditions: growth inhibition photometrically 3-4 days after application, compared to untreated control
Method: 16. Thanatephorus cucumeris (Rhizoctonia solani)/Liquid Culture (Foot Rot, Damping-Off) Mycelia fragments of a newly grown liquid culture of the fungus are directly mixed into nutrient broth (PDB potato dextrose broth). After placing a (DMSO) solution of the test compounds into a microtiter plate (96-well format), the nutrient broth containing the fungal material is added. The test plates are incubated at 24° C. and the inhibition of growth is determined photometrically 3-4 days after application.

Sclerotinia sclerotiorum = Sclerotinia sclerotiorum / liquid culture (cottony rot); conditions: growth inhibition photometrically 3-4 days after application, compared to untreated control
Method: 17. Sclerotinia sclerotiorum/Liquid Culture (Cottony Rot) Mycelia fragments of a newly grown liquid culture of the fungus are directly mixed into nutrient broth (PDB potato dextrose broth). After placing a (DMSO) solution of test compound into a microtiter plate (96-well format) the nutrient broth containing the fungal material is added. The test plates are incubated at 24° C. and the inhibition of growth is determined photometrically 3-4 days after application.

[5] = tested on: Mycosphaerella graminicola (Septoria tritici); test: Mycosphaerella graminicola (Septoria tritici) / liquid culture (Septoria blotch); conditions: Zymoseptoria tritici, growth inhibition photometrically 4-5 days after application, compared to untreated control
Method: as §1, with “18. Mycosphaerella graminicola (Septoria tritici)/Liquid” for “6. Gaeumannomyces Graminis/Liquid”, “(Septoria Blotch) Conidia” for “(Take-all of Cereals) Mycelial fragments”, “are” for “were”

Measured: inhibition of growth at 20 ppm

CCOc1c(C(=O)OC)ccc2c1B(O)OC2 [Compound 4, methyl 7-ethoxy-1-hydroxy-3H-2,1-benzoxaborole-6-carboxylate]
≥ 80%: all assays above

COC(=O)c1ccc2c(c1OC(F)F)B(O)OC2 [Compound 16, methyl 7-(difluoromethoxy)-1-hydroxy-3H-2,1-benzoxaborole-6-carboxylate]
≥ 80%: Gaeumannomyces graminis | [3] | Pythium ultimum | Sclerotinia sclerotiorum

COc1c(C(=O)Nc2nnc(C(F)(F)F)s2)ccc2c1B(O)OC2 [Compound 64, 1-hydroxy-7-methoxy-N-[5-(trifluoromethyl)-1,3,4-thiadiazol-2-yl]-3H-2,1-benzoxaborole-6-carboxamide]
≥ 80%: [1] | Gaeumannomyces graminis | [2] | Pythium ultimum | Sclerotinia sclerotiorum

COC(=O)C#CCOC(=O)c1ccc2c(c1OC)B(O)OC2 [Compound 79, (4-methoxy-4-oxo-but-2-ynyl) 1-hydroxy-7-methoxy-3H-2,1-benzoxaborole-6-carboxylate]
≥ 80%: all assays above

COc1c(C(=O)OC(C)c2cccc(Cl)c2)ccc2c1B(O)OC2 (stereo not drawn) [Compound 83, 1-(3-chlorophenyl)ethyl 1-hydroxy-7-methoxy-3H-2,1-benzoxaborole-6-carboxylate]
not listed: [3] | Sclerotinia sclerotiorum
≥ 80%: all other assays above

COc1c(C(=O)OCCc2scnc2C)ccc2c1B(O)OC2 [Compound 84, 2-(4-methylthiazol-5-yl)ethyl 1-hydroxy-7-methoxy-3H-2,1-benzoxaborole-6-carboxylate]
≥ 80%: [1] | Gaeumannomyces graminis | [2] | [3] | Pythium ultimum

COc1c(C(=O)OCc2ccccc2)ccc2c1B(O)OC2 [Compound 85, benzyl 1-hydroxy-7-methoxy-3H-2,1-benzoxaborole-6-carboxylate]
not listed: [3] | Sclerotinia sclerotiorum
≥ 80%: all other assays above

COc1c(C(=O)OC(CC(F)(F)F)c2ccccc2)ccc2c1B(O)OC2 (stereo not drawn) [Compound 89, (3,3,3-trifluoro-1-phenyl-propyl) 1-hydroxy-7-methoxy-3H-2,1-benzoxaborole-6-carboxylate]
≥ 80%: [1] | Gaeumannomyces graminis | [2] | Pythium ultimum | [4]

CCN(CC)C(=O)COC(=O)c1ccc2c(c1OC)B(O)OC2 [Compound 94, [2-(diethylamino)-2-oxo-ethyl] 1-hydroxy-7-methoxy-3H-2,1-benzoxaborole-6-carboxylate]
≥ 80%: all assays above

CCC1=NC(C)(COC(=O)c2ccc3c(c2OC)B(O)OC3)CO1 (stereo not drawn) [Compound 99, (2-ethyl-4-methyl-5H-oxazol-4-yl)methyl 1-hydroxy-7-methoxy-3H-2,1-benzoxaborole-6-carboxylate]
≥ 80%: all assays above

COc1c(C(=O)OCC2SCCS2)ccc2c1B(O)OC2 [Compound 100, 1,3-dithiolan-2-ylmethyl 1-hydroxy-7-methoxy-3H-2,1-benzoxaborole-6-carboxylate]
≥ 80%: [1] | Gaeumannomyces graminis | [2] | Pythium ultimum | [4]

CC#CCCOC(=O)c1ccc2c(c1OC)B(O)OC2 [Compound 105, pent-3-ynyl 1-hydroxy-7-methoxy-3H-2,1-benzoxaborole-6-carboxylate]
not listed: [4] | Sclerotinia sclerotiorum
≥ 80%: all other assays above

COc1cccc(C#CCOC(=O)c2ccc3c(c2OC)B(O)OC3)c1 [Compound 107, 3-(3-methoxyphenyl)prop-2-ynyl 1-hydroxy-7-methoxy-3H-2,1-benzoxaborole-6-carboxylate]
not listed: [3] | Sclerotinia sclerotiorum
≥ 80%: all other assays above

COc1c(C(=O)OCCc2ccccc2)ccc2c1B(O)OC2 [Compound 110, phenethyl 1-hydroxy-7-methoxy-3H-2,1-benzoxaborole-6-carboxylate]
not listed: [4] | Sclerotinia sclerotiorum
≥ 80%: all other assays above

CCOC(=O)COC(=O)c1ccc2c(c1OC)B(O)OC2 [Compound 111, (2-ethoxy-2-oxo-ethyl) 1-hydroxy-7-methoxy-3H-2,1-benzoxaborole-6-carboxylate]
≥ 80%: [1] | Gaeumannomyces graminis | [2] | Pythium ultimum | [4]

COc1c(C(=O)OCC(C)(C)Cc2ccccc2)ccc2c1B(O)OC2 [Compound 117, (2,2-dimethyl-3-phenyl-propyl) 1-hydroxy-7-methoxy-3H-2,1-benzoxaborole-6-carboxylate]
≥ 80%: [1] | Gaeumannomyces graminis | [2] | [4] | [5]

COc1c(C(=O)OCCc2ccccc2F)ccc2c1B(O)OC2 [Compound 124, 2-(2-fluorophenyl)ethyl 1-hydroxy-7-methoxy-3H-2,1-benzoxaborole-6-carboxylate]
not listed: [3] | Sclerotinia sclerotiorum
≥ 80%: all other assays above

COc1c(C(=O)OC(C)CCc2ccccc2)ccc2c1B(O)OC2 (stereo not drawn) [Compound 130, (1-methyl-3-phenyl-propyl) 1-hydroxy-7-methoxy-3H-2,1-benzoxaborole-6-carboxylate]
not listed: [3] | Sclerotinia sclerotiorum
≥ 80%: all other assays above

Source: patent publication US20180244699A1, “1-HYDROXY-3H-2,1-BENZOXABOROLE DERIVATIVES AND THEIR USE AS MICROBIOCIDES” (Syngenta Participations AG, priority 2015, published 2018)
